Results taken from patent US20250302840A1, “COMBINATION THERAPIES” (Janssen Pharmaceutica NV, priority 2021, published 2025).
Counter-ions that a name gives are not always drawn. Marks after values point to notes of the source that are not given here.

Legend:
iCell® Cardiomyocytes2 = assay: Ca2+-fluorescence assay in human pluripotent stem cell-derived cardiomyocytes (CTCM human); type: cell-based; parameters: key to Hazard scoring, Color @ 0.1 μM / Hazard scoring, Color @ 0.2 μM / Hazard scoring, Color @ 0.5 μM / Hazard scoring, Color @ 1 μM / Hazard scoring, Color @ 2.5 μM / Hazard scoring, Color @ 5 μM / Hazard scoring, Color @ 0.3 μM / Hazard scoring, Color @ 3 μM / Hazard scoring, Color @ 10 μM / Hazard scoring, Color @ 30 μM: Green: No concern; Yellow: Low concern; Red: High concern; Black: Very high concern due to arrhythmic events
Protocol: Compounds were tested in the 96-well plates.
Compounds were tested at 0.1 μM, 0.2 μM, 0.5 μM, 1 μM, 2.5 μM and 5 μM (n=4 per dose) on Cor.4U®-Cardiomyocytes or on iCell® Cardiomyocytes2.
Alternatively, compounds were tested at 0.1 μM, 0.3 μM; 1 μM, 3 μM, 10 μM and 30 μM (n=4 per dose) mostly on iCell® Cardiomyocytes2.
Vehicle control: Dimethylsulfoxide (DMSO). The solutions of the compound in DMSO or its solvent (final concentration of 0.1% DMSO; n=8).
Tested compounds were dissolved in DMSO at 1000-fold the intended concentrations.
A compound “mother-plate” was made, containing the test compounds and positive and negative controls at 1000-fold the final concentrations. At the experiment day, these stock solutions were diluted with Tyrode (Sigma), supplemented with 10 mM HEPES (Gibco), to 2-fold the intended concentration (in round bottom compound plates). Final DMSO concentration in test solutions and vehicle control was 0.1%.
Second line hSC derived cardiomyocyte called iCell® Cardiomyocytes2 were purchased from FUJIFILM Cellular Dynamics (USA). The experiments with test drugs are carried out 5 to 7 days after plating the cells onto the plate to have a living, beating monolayer of hiPSC-derived cardiomyocytes. The beating monolayer in 96-well-plates are normally taken from 2 Vials of frozen iCell® Cardiomyocytes2 (˜5 million cells/vial), which will be plated onto […] 96-well plates (z50K/well).
At least one hour before the start of the experiments the normal cell medium was replaced with Tyrode solution with Calcium dye (see below).
Cal 520 dye (AAT Bioquest) was dissolved in 11 ml of Tyrode supplemented with 10 mM HEPES and warmed up to 37 C before adding to the cells.
35 μl cell culture medium was removed from each well and replaced with 35 μl of pre-warmed Cal 520 dye solution and cell plate was incubated for 45 min at 37° C./5% CO2. Cells were incubated for 5 min at 37° C.
Spontaneous electrical activity is recorded, using Cal520™ (AAT Bioquest) calcium fluorescence-dye signalling. This dye integrates the total intracellular calcium activity over the whole well. A bottle of Cal520 dye ([…], MW: 1103/mol) is dissolved with 50 μl DMSO as a stock solution of 0.9 mM. 50 μL of the stock solution of the dye was added to 10 ml Tryodes solution to have dye concentration of 4.5 μM. Subsequently, 35 μl of this dye solution was added into each well, to have a final dye concentration of 1.58 μM. The current dye protocol on this CTCM human assay was established recently (Ivan Kopljar et al, Journal of Pharmacological and toxicological methods 2018. 91: 80-86; Lu et al., Tox Sci 2019. 170 (2): 345-356).
Fluorescent signals (Ca^2+ transient morphology) were measured using the Functional Drug Screen System (FDSS/pCell; Hamamatsu, Japan) and the recordings were subsequently analyzed off-line, using appropriate software e.g., Notocord.
The cell plate was loaded into the FDSS/pCell for a test run: Ca^2+ transients were measured for 4 minutes to check for synchronous beating of the cardiomyocytes in each well. All 96 wells were measured simultaneously (sampling interval: 0.06 s, short exposure time: 10 ms; excitation wavelength 480 nm; emission wavelength 540 nm; FDSS/pCell warmed to 37° C.).
During the compound addition step, 100 μl of the respective double-concentrated test solutions was pipetted into each well simultaneously.
Data were analyzed off-line using appropriate software e.g., Notocord-Hem (version 4.3).
The following parameters of the Ca^2+ transient morphology were measured: • beat rate (BR) • amplitude of the Ca^2+ transient (Amp), • CTD90: Ca^2+ transient duration at 90% (time to 90% of the initial base value).
The presence of various ‘arrhythmia-like’ activities were also noted during the experimental periods. […]

MOLM-13 tumors = assay: Efficacy of combinations in MOLM-13 (KMT2a-r) IV model in NSG mice; type: in vivo; conditions: azacitidine 2 mg/kg ip QD × 7; venetoclax 100 mg/kg po QD × 28; Compound A1 10 mg/kg po QD × 28
Protocol: Each mouse received an injection of 1×10^5 MOLM-13 cells, and all other parameters were conducted as described for experiment (10).

[1] = Mouse PK (in vivo T1/2 and oral bioavailability); parameters: species or system CD-1 mice; conditions: for In vivo T1/2 (IV): IV 0.5 or 1.0 mg/kg
Protocol: In vivo pharmacokinetics (PK) were assessed in fasted male CD-1 mice (age 6-8 weeks) following a single intravenous (IV, 0.5 or 1.0 mg/kg administered at 2.5 ml/kg) or oral (PO, 5 mg/kg administered at 10 ml solution/kg) dose of test article formulated in a 20% (w:vol) HP-β-CD solution or in Pyrogen free water.
Plasma and/or whole blood samples were collected from the dorsal metatarsal vein at desired timepoints via serial capillary microsampling (approx. 0.03 mL) using EDTA as an anticoagulant. Concentrations of compound in the plasma and blood samples were analyzed using a qualified LC-MS/MS method. In silico analysis of main pharmacokinetic parameters was performed using WinNonlin (Phoenix™, version 6.1) or similar software.)

OCI-AML3 tumors = assay: Efficacy of combinations in OCI-AML3 (NPM1c) IV model in NSG mice; type: in vivo; conditions: azacitidine 2 mg/kg ip QD × 7; venetoclax 100 mg/kg po QD × 28; Compound A1 30 mg/kg po QD × 28
Protocol: Median survival was determined utilizing Kaplan-Meier survival analysis.

[2] = efficacious dose in mouse xenograft models of 30 mg/kg, (mouse, human)

| SMILES | Hazard scoring, Color @ 0.1 μM (iCell® Cardiomyocytes2; 30 min incubation, Table 12) | Hazard scoring, Color @ 0.3 μM (iCell® Cardiomyocytes2; 30 min incubation, Table 12) | Hazard scoring, Color @ 1 μM (iCell® Cardiomyocytes2; 30 min incubation, Table 12) | Hazard scoring, Color @ 3 μM (iCell® Cardiomyocytes2; 30 min incubation, Table 12) | Hazard scoring, Color @ 10 μM (iCell® Cardiomyocytes2; 30 min incubation, Table 12) | Hazard scoring, Color @ 30 μM (iCell® Cardiomyocytes2; 30 min incubation, Table 12) | % ILS (MOLM-13 tumors) | other results |
| --- | --- | --- | --- | --- | --- | --- | --- | --- |
| CCN(C(=O)c1cc(F)ccc1Oc1nncnc1N1CCC2(C1)CN([C@H](CCCNCCOC)C(C)C)C2)C(C)C [Compound 11, (R)—N-ethyl-5-fluoro-N-isopropyl-2-((5-(2-(6-((2-methoxyethyl)amino)-2-methylhexan-3-yl)-2,6-diazaspiro[3.4]octan-6-yl)-1,2,4-triazin-6-yl)oxy)benzamide] | Green | Green | Green | Green | Green | Green |  |  |
| CCN(C(=O)c1cc(F)ccc1Oc1nncnc1N1CCC2(C1)CN([C@H](CCCN(C)CCOC)C(C)C)C2)C(C)C [Compound A1] | Green | Green | Green | Green | Green | yellow | 35* % | Margin CTCM human 10 μM vs free Cmax (iCell® Cardiomyocytes2; [2]): > 16; Margin CTCM human 30 μM vs free Cmax (iCell® Cardiomyocytes2; [2]): > 45 |
| CCN(C(=O)c1cc(F)ccc1Oc1nncnc1N1CCC2(C1)CN([C@H](CCCN(C)CCOC)C(C)C)C2)C(C)C [Compound A3, (R)—N-ethyl-5-fluoro-N-isopropyl-2-((5-(2-(6-((2-methoxyethyl) (methyl)amino)-2-methylhexan-3-yl)-2,6-diazaspiro[3.4]octan-6-yl)-1,2,4-triazin-6-yl)oxy) benzamide oxalate] |  |  |  |  |  |  |  | Hazard scoring, Color @ 0.1 μM (iCell® Cardiomyocytes2; 30 min incubation, Table 11): Green; Hazard scoring, Color @ 0.2 μM (iCell® Cardiomyocytes2; 0.2 μM, 30 min incubation, Table 11): Green; Hazard scoring, Color @ 0.5 μM (iCell® Cardiomyocytes2; 0.5 μM, 30 min incubation, Table 11): Green; Hazard scoring, Color @ 1 μM (iCell® Cardiomyocytes2; 30 min incubation, Table 11): Green; Hazard scoring, Color @ 2.5 μM (iCell® Cardiomyocytes2; 2.5 μM, 30 min incubation, Table 11): Green; Hazard scoring, Color @ 5 μM (iCell® Cardiomyocytes2; 5 μM, 30 min incubation, Table 11): Green; In vivo T1/2 (IV) ([1]; formulating agent Pyrogen free water): 9.0 h |
| CCN(C(=O)c1cc(F)ccc1Oc1nncnc1N1CCC2(C1)CN([C@H](CCCN(C)CCOC)C(C)C)C2)C(C)C [Compound A, (R)—N-ethyl-5-fluoro-N-isopropyl-2-((5-(2-(6-((2-methoxyethyl) (methyl)amino)-2-methylhexan-3-yl)-2,6-diazaspiro[3.4]octan-6-yl)-1,2,4-triazin-6-yl)oxy) benzamide] |  |  |  |  |  |  |  | In vivo T1/2 (IV) ([1]; formulating agent HP-β-CD): 6.7 h; Bioavailability (PO) ([1]; PO 5 mg/kg, formulating agent HP-β-CD): 17% |
| CC1(C)CCC(CN2CCN(c3ccc(C(=O)NS(=O)(=O)c4ccc(NCC5CCOCC5)c([N+](=O)[O-])c4)c(Oc4cnc5[nH]ccc5c4)c3)CC2)=C(c2ccc(Cl)cc2)C1 [Venetoclax, reference compound] |  |  |  |  |  |  | 6% | % ILS (OCI-AML3 tumors): 0 (ns) % |
